Measurements published in US20250230193A1, “CYCLIC COMPOUND HAVING SELECTIVE KRAS INHIBITORY EFFECT ON HRAS AND NRAS” (CHUGAI SEIYAKU KABUSHIKI KAISHA, priority 2022, published 2025).

Assays:
[1] = biological target: GDP-bound HRAS wild-type protein (Homo sapiens, UniProt P01112); experiment: Binding to HRAS by surface plasmon resonance (SPR), Single Cycle Kinetics; settings: SPR, GDP-bound HRAS wild-type vs GDP-bound KRAS wild-type
[2] = biological target: GDP-bound NRAS wild-type protein (Homo sapiens, UniProt P01111); experiment: Binding to NRAS by surface plasmon resonance (SPR), Single Cycle Kinetics; settings: SPR, GDP-bound NRAS wild-type vs GDP-bound KRAS wild-type
GDP-bound NRAS wild-type protein, sequence (P01111 whole entry): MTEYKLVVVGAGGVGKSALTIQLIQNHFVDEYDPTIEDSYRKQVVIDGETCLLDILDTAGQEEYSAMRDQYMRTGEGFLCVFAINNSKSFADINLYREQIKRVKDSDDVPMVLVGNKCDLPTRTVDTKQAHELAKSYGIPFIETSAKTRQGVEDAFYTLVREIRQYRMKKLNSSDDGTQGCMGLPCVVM

GDP-bound HRAS wild-type protein, sequence (P01112 whole entry): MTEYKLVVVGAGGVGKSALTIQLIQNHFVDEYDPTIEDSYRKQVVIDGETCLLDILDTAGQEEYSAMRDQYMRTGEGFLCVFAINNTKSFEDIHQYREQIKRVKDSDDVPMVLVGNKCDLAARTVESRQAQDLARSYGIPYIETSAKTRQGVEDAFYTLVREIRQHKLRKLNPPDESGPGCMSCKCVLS

| Structure (SMILES) | HRAS/KRAS (ratio of KD value with respect to HRAS to KD value with respect to KRAS) [1] | NRAS/KRAS (ratio of KD value with respect to NRAS to KD value with respect to KRAS) [2] |
| --- | --- | --- |
| CCC[C@H]1C(=O)N[C@@H]([C@H](C)CC)C(=O)N(C)CC(=O)N(C)[C@H]2C/C=C\CCN(C2=O)[C@@H](Cc2ccc(C)cc2)C(=O)N(C)CC(=O)N[C@@H](CCc2ccc(C(F)(F)F)c(Cl)c2)C(=O)N2C[C@H](OCC)C[C@H]2C(=O)NC2(CC(C)(C)C2)C(=O)N(C)[C@@H](CC(C)(C)C)C(=O)N(C)[C@H](C(=O)N(C)C)CC(=O)N1C [PP2219] | A (a compound having 10 or more and less than 20 is denoted as A) | A (a compound having 10 or more and less than 20 is denoted as A) |
| CC[C@@H]1C[C@H]2C(=O)NC3(CCC3)C(=O)N(C)[C@@H](C3CCCC3)C(=O)N(C)[C@H](C(=O)N(C)C)CC(=O)N(C)[C@@H](CC(C)C)C(=O)N[C@@H]([C@@H](C)CC)C(=O)N(C)CC(=O)N(C)[C@H]3C/C=C\CCN(C3=O)[C@@H](Cc3ccc(C)cc3)C(=O)N(C)CC(=O)N[C@@H](CCc3cc(F)c(C(F)(F)F)c(F)c3)C(=O)N2C1 [PP2220] | A (a compound having 10 or more and less than 20 is denoted as A) | A (a compound having 10 or more and less than 20 is denoted as A) |
| CCC[C@H]1C(=O)N[C@@H]([C@H](C)CC)C(=O)N(C)CC(=O)N(C)[C@H]2C/C=C\CCN(C2=O)[C@@H](Cc2ccc(C)cc2)C(=O)N(C)CC(=O)N[C@@H](CCc2ccc(C(F)(F)F)c(Cl)c2)C(=O)N2C[C@H](OCC)C[C@H]2C(=O)NC2(CC(C)(C)C2)C(=O)N(C)[C@@H](C2CCCC2)C(=O)N(C)[C@H](C(=O)N(C)C)CC(=O)N1C [PP2221] | A (a compound having 10 or more and less than 20 is denoted as A) | A (a compound having 10 or more and less than 20 is denoted as A) |
| CC[C@H](C)[C@@H]1NC(=O)[C@H](CC(C)C)N(C)C(=O)C[C@@H](C(=O)N(C)C)N(C)C(=O)[C@H](C2CCCC2)N(C)C(=O)C2(CC(C)(C)C2)NC(=O)[C@@H]2C[C@@H](C)CN2C(=O)[C@H](CCc2cc(F)c(C(F)(F)F)c(F)c2)NC(=O)CN(C)C(=O)[C@H](Cc2ccc(C)cc2)N2CC/C=C\C[C@@H](C2=O)N(C)C(=O)CN(C)C1=O [PP2223] | A (a compound having 10 or more and less than 20 is denoted as A) | A (a compound having 10 or more and less than 20 is denoted as A) |
| CCC[C@H]1C(=O)N[C@@H]([C@@H](C)CC)C(=O)N(C)CC(=O)N(C)[C@H]2C/C=C\CCN(C2=O)[C@@H](Cc2ccc(C)cc2)C(=O)N(C)CC(=O)N[C@@H](CCc2ccc(C(F)(F)F)c(Cl)c2)C(=O)N2C[C@H](OCC)C[C@H]2C(=O)NC2(CC(C)(C)C2)C(=O)N(C)[C@@H](CC(C)C)C(=O)N(C)[C@H](C(=O)N(C)C)CC(=O)N1C [PP2224] | A (a compound having 10 or more and less than 20 is denoted as A) | A (a compound having 10 or more and less than 20 is denoted as A) |
| CCCOC[C@H]1C(=O)N[C@@H]([C@@H](C)CC)C(=O)N(C)CC(=O)N(C)[C@H]2C/C=C\CCN(C2=O)[C@@H](Cc2ccc(C)cc2)C(=O)N(C)CC(=O)N[C@@H](CCc2cc(F)c(C(F)(F)F)c(F)c2)C(=O)N2C[C@H](C)C[C@H]2C(=O)NC2(CCCC2)C(=O)N(C)[C@@H](C2CCCC2)C(=O)N(C)[C@H](C(=O)N(C)C)CC(=O)N1C [PP2225] | A (a compound having 10 or more and less than 20 is denoted as A) | A (a compound having 10 or more and less than 20 is denoted as A) |
| CCC[C@H]1C(=O)N[C@@H]([C@@H](C)CC)C(=O)N(C)CC(=O)N(C)[C@H]2C/C=C\CCN(C2=O)[C@@H](Cc2ccc(C)cc2)C(=O)N(C)CC(=O)N[C@@H](CCc2ccc(C(F)(F)F)c(Cl)c2)C(=O)N2C[C@H](OCC)C[C@H]2C(=O)NC2(CC(C)(C)C2)C(=O)N(C)[C@@H](CC(F)(F)F)C(=O)N(C)[C@H](C(=O)N(C)C)CC(=O)N1C [PP2226] | A (a compound having 10 or more and less than 20 is denoted as A) | A (a compound having 10 or more and less than 20 is denoted as A) |
| CCC[C@@H]1C[C@H]2C(=O)NC3(CCCC3)C(=O)N(C)[C@@H](C3CCCC3)C(=O)N(C)[C@H](C(=O)N(C)C)CC(=O)N(C)[C@@H](CC)C(=O)N[C@@H]([C@@H](C)CC)C(=O)N(C)CC(=O)N(C)[C@H]3C/C=C\CCN(C3=O)[C@@H](Cc3ccc(C)cc3)C(=O)N(C)CC(=O)N[C@@H](CCc3cc(F)c(C(F)(F)F)c(F)c3)C(=O)N2C1 [PP2227] | A (a compound having 10 or more and less than 20 is denoted as A) | A (a compound having 10 or more and less than 20 is denoted as A) |
| CCCOC[C@H]1C(=O)N[C@@H]([C@@H](C)CC)C(=O)N(C)CC(=O)N(C)[C@H]2C/C=C\CCN(C2=O)[C@@H](Cc2ccc(C)cc2)C(=O)N(C)CC(=O)N[C@@H](CCc2cc(F)c(C(F)(F)F)c(F)c2)C(=O)N2C[C@H](CCC)C[C@H]2C(=O)NC2(CCCC2)C(=O)N(C)[C@@H](C2CCCC2)C(=O)N(C)[C@H](C(=O)N(C)C)CC(=O)N1C [PP2229] | A (a compound having 10 or more and less than 20 is denoted as A) | A (a compound having 10 or more and less than 20 is denoted as A) |
| CCC[C@H]1C(=O)N[C@@H]([C@@H](C)CC)C(=O)N(C)CC(=O)N(C)[C@H]2C/C=C\CCN(C2=O)[C@@H](Cc2ccc(C)cc2)C(=O)N(C)CC(=O)N[C@@H](CCc2ccc(C(F)(F)F)c(Cl)c2)C(=O)N2C[C@H](OCC)C[C@H]2C(=O)NC2(CC(C)(C)C2)C(=O)N(C)[C@@H](CC(C)(C)C)C(=O)N(C)[C@H](C(=O)N(C)C)CC(=O)N1C [PP2230] | A (a compound having 10 or more and less than 20 is denoted as A) | A (a compound having 10 or more and less than 20 is denoted as A) |
| CCC[C@@H]1C[C@H]2C(=O)NC3(CCC3)C(=O)N(C)[C@@H](C3CCCC3)C(=O)N(C)[C@H](C(=O)N(C)C)CC(=O)N(C)[C@@H](CC(C)C)C(=O)N[C@@H]([C@@H](C)CC)C(=O)N(C)CC(=O)N(C)[C@H]3C/C=C\CCN(C3=O)[C@@H](Cc3ccc(C)cc3)C(=O)N(C)CC(=O)N[C@@H](CCc3cc(F)c(C(F)(F)F)c(F)c3)C(=O)N2C1 [PP2231] | B (a compound having 3 or more and less than 10 is denoted as B) | A (a compound having 10 or more and less than 20 is denoted as A) |
| CCCOC[C@H]1C(=O)N[C@@H]([C@@H](C)CC)C(=O)N(C)CC(=O)N(C)[C@H]2C/C=C\CCN(C2=O)[C@@H](Cc2ccc(C)cc2)C(=O)N(C)CC(=O)N[C@@H](CCc2cc(F)c(C(F)(F)F)c(F)c2)C(=O)N2C[C@H](CCC)C[C@H]2C(=O)NC2(CCC2)C(=O)N(C)[C@@H](C2CCCC2)C(=O)N(C)[C@H](C(=O)N(C)C)CC(=O)N1C [PP2232] | A (a compound having 10 or more and less than 20 is denoted as A) | A (a compound having 10 or more and less than 20 is denoted as A) |
| CCC[C@@H]1C[C@H]2C(=O)NC3(CCC3)C(=O)N(C)[C@@H](C3CCCC3)C(=O)N(C)[C@H](C(=O)N(C)C)CC(=O)N(C)[C@@H](CC)C(=O)N[C@@H]([C@@H](C)CC)C(=O)N(C)CC(=O)N(C)[C@H]3C/C=C\CCN(C3=O)[C@@H](Cc3ccc(C)cc3)C(=O)N(C)CC(=O)N[C@@H](CCc3cc(F)c(C(F)(F)F)c(F)c3)C(=O)N2C1 [PP2233] | A (a compound having 10 or more and less than 20 is denoted as A) | A (a compound having 10 or more and less than 20 is denoted as A) |
| CCCOC[C@H]1C(=O)N[C@@H]([C@@H](C)CC)C(=O)N(C)CC(=O)N(C)[C@H]2C/C=C\CCN(C2=O)[C@@H](Cc2ccc(C)cc2)C(=O)N(C)CC(=O)N[C@@H](CCc2ccc(C(F)(F)F)c(Cl)c2)C(=O)N2C[C@H](C)C[C@H]2C(=O)NC2(CC(C)(C)C2)C(=O)N(C)[C@@H](C2CCCC2)C(=O)N(C)[C@H](C(=O)N(C)C)CC(=O)N1C [PP2234] | A (a compound having 10 or more and less than 20 is denoted as A) | A (a compound having 10 or more and less than 20 is denoted as A) |
| CCCOC[C@H]1C(=O)N[C@@H]([C@@H](C)CC)C(=O)N(C)CC(=O)N(C)[C@H]2C/C=C\CCN(C2=O)[C@@H](Cc2ccc(C)cc2)C(=O)N(C)CC(=O)N[C@@H](CCc2ccc(C(F)(F)F)c(Cl)c2)C(=O)N2C[C@H](CC)C[C@H]2C(=O)NC2(CC(C)(C)C2)C(=O)N(C)[C@@H](C2CCCC2)C(=O)N(C)[C@H](C(=O)N(C)C)CC(=O)N1C [PP2235] | A (a compound having 10 or more and less than 20 is denoted as A) | A (a compound having 10 or more and less than 20 is denoted as A) |
